Data on eleven molecules can be found in US7144856B2, “Inhibitors of dipeptidyl peptidase I” (Probiodrug AG, priority 2001, dated 2006).

Where a name gives a salt, the structure may show the parent alone.

The IC50 is the concentration that inhibits the measured activity by half. In general, kinact/KI refers to the second-order rate constant of inactivation. The term melting point denotes the temperature, or range, at which the solid turns liquid.

For one series, the target named is cathepsin L (Homo sapiens, UniProt P07711). As to the kind of experiment: cross-reactivity against cathepsin L, IC50. In kind it is biochemical. The note with it: n.i. = no inhibition; read-out: IC50 Cath. L. The method, then: (§1) Selected compounds, based on the general formula (II) below, were tested concerning their inhibitory potential against DP I and for their cross-reactivity against three more cysteine proteases, namely cathepsin B, H, L and another dipeptidyl peptidase, dipeptidyl peptidase IV (DP IV).

Series [1] deals with dipeptidyl peptidase IV (DP IV) (Homo sapiens, UniProt P27487). As to the kind of experiment: cross-reactivity against dipeptidyl peptidase IV, IC50. It is filed as biochemical. The note with it: n.i. = no inhibition. The method, then:
as §1

Series [2] has as its target T1, DP I (Rattus norvegicus, UniProt P80067).
T1 construct: purchased Qiagen
As to the kind of experiment: determination of second order rate constant kinact/Ki for DP I. It is filed as biochemical. The note with it: substrate Gly-Arg-pNA 1 mM and 0.5 mM. The method, then:
For the Ki-value determination a UV-spectrophotometer (Lambda 20, PerkinElmer, Überlingen, Germany) was used. The reaction was monitored via the p-nitroaniline released from the substrate (Gly-Arg-pNA) at λ=390 nm. DP I (1 U/mg, assay condition: Tagzyme handbook, Qiagen, Hilden, Germany) was diluted in MES-buffer (1:1000) and preincubated and activated for 30 min on crashed ice. The reaction mixture consists: 500 μl stock solution MES-buffer, 500 μl HCl*Gly-L-Arg-pNA, 250 μl inhibitor, 50 μl DP I. In order to calculate the second order rate constant (kinact/Ki) two substrate concentrations (1 mM and 0.5 mM in the incubation mixture) were combined with 6 inhibitor concentrations (5*10^−7 M to 3*10^−8 M in the assay). From the product-time-course the observed first order rate constant was determined.
Plotting 1/kobs versus substrate concentration allows the calculation of the real first order rate constant of inactivation for each inhibitor concentration at [S]=0.
Based on this equation Ki and kinact can be determined.

A further series has as its target T2, cathepsin H (Homo sapiens, UniProt P09668).
T2 sequence (P09668 98-335): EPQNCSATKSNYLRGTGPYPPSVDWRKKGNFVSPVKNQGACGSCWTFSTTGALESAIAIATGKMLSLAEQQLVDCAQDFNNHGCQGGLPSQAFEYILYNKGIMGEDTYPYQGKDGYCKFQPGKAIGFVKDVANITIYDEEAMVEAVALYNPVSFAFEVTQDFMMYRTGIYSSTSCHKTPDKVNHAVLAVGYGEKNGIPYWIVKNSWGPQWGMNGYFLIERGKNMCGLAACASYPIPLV
Kind of series: cross-reactivity against cathepsin H, IC50. In kind it is biochemical. The note with it: n.i. = no inhibition; for IC50: read-out: IC50 Cath. H. The method, then: as §1

For another series, the target named is cathepsin B (Homo sapiens, UniProt P07858). Kind of series: cross-reactivity against cathepsin B, IC50. It is filed as biochemical. The note with it: n.i. = no inhibition; read-out: IC50 Cath. B. The method, then:
as §1

Series [3] deals with Hep-G2 (human hepatocyte cell line). As to the kind of experiment: cytotoxicity assay, Hep-G2 cells. The note with it: 24 hours incubation. In kind it is cell-based. The method, then: (§2) The toxicological potential of the compounds provided therein against murine cell lines is different from their toxicological potential against human cell lines. Selected compounds, based on the general formula (II) above, were tested concerning their cytotoxicological potential against the two cell-lines, L-929 (murine fibroblast cell line) and Hep-G2 (human hepatocyte cell line) cells.
(§3) HEP-G2, a human hepatocyte cell line (ACC180) and L-929, a mouse fibroplast cell line (ACC2) were grown in RPMI 1604 with 10% fetal bovine serum and 60 μg/ml gentamycin.
(§4) All cultures were fed every 2–3 days and incubated in an humified chamber at 37° C. and 5% CO2. For determining the cytotoxicity of different DPI-inhibitors, we used the CytoTox96™ Non-radioactive Cytotoxicity Assay (Promega, Madison, Wis., USA). HEP-G2 (30000 cells per well) and L-929 (20000 cells per well) were placed in 96 well plates in RPMI 1604 with 10% fetal bovine serum and grown for 24 hours. The cells were then incubated with various concentrations of different DPI-inhibitors for 24 hours in RPMI 1604 with 10% fetal bovine serum. One hour after addition of MTS-solution, the reaction was stopped by adding stop-solution of Promega. The absorbance was measured at 490 nm with a spectrophotometer. All experiments were performed twice simultaneously in three wells.

Series [4] concerns L-929 (murine fibroblast cell line). Kind of series: cytotoxicity assay, L-929 cells. The note with it: 24 hours incubation. In kind it is cell-based. The method, then: as §2, §3, §4
Series [5] addresses T3, DP I (Rattus norvegicus, UniProt P80067).
T3 sequence (P80067 with tags, fused parts or gaps): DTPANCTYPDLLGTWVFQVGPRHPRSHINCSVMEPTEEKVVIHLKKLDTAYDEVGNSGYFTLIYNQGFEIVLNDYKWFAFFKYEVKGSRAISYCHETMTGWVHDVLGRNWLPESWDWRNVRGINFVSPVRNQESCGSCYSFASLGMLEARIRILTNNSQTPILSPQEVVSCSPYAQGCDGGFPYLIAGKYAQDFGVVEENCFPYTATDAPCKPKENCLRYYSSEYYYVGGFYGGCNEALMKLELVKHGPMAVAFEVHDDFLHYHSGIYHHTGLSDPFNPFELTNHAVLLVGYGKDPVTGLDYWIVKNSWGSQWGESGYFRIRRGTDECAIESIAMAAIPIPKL
The note with it: background, literature; cited from earlier work.

Sequence of cathepsin L (P07711 114-333): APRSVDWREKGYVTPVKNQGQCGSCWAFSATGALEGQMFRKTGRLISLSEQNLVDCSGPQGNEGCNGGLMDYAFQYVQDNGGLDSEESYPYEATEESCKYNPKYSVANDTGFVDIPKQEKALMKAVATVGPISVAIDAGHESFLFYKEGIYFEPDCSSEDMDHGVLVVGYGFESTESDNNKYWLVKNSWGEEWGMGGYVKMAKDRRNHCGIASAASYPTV
Sequence of dipeptidyl peptidase IV (DP IV) (P27487 whole entry, species assumed): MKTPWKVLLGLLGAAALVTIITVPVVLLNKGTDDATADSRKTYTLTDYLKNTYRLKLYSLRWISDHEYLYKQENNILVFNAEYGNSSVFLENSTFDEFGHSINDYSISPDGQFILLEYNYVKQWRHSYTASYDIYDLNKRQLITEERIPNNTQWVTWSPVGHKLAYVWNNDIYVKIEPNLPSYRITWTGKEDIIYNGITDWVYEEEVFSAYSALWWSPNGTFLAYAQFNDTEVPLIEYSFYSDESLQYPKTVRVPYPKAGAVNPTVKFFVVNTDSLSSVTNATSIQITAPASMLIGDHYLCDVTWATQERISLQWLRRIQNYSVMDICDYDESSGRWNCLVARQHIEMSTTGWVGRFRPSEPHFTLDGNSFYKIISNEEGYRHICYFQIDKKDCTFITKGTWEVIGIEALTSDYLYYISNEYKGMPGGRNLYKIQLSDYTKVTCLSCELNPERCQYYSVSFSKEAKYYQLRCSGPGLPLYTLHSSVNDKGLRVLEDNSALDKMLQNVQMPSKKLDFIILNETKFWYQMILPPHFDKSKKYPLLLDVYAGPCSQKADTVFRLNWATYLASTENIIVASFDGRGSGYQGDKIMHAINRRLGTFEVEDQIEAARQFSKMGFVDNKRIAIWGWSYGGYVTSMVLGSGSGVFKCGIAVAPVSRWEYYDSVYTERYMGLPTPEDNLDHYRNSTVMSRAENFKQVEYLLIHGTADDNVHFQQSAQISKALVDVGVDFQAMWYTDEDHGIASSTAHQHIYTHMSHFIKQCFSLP

Consider `CNCC(=O)N[C@@H](Cc1ccccc1)C(=O)NOC(=O)c1ccccc1` [compound 14, TFA*H-Sar-L-Phe-NHO-Bz], for which the IC50 at cathepsin L was 4.61 µM; on cathepsin H, 205 µM; on cathepsin B, 41.8 µM. In series [1], the “IC50 DP IV” value is recorded as “n.i”. For the same molecule, the kinact/KI at DP I [2] is 140000 M⁻¹ s⁻¹.

Regarding `NCC(=O)N[C@@H](Cc1ccccc1)C(=O)NOC(=O)c1ccc([N+](=O)[O-])cc1` [compound 13, TFA*H-Gly-L-Phe-NHO-Bz-p-NO2], the IC50 is 7.32 µM on cathepsin L, 34.7 µM on cathepsin H and 5.31 µM at cathepsin B. In addition, the “LD50 Hep-G2” value in series [3] stood at 0.8 mg/mL. Besides, the “LD50 L-929” value in [4] amounted to 2.3 mg/mL. For the same molecule, in [1], the “IC50 DP IV” value was “n.i”. Moreover, the kinact/KI on DP I [2] was found to be 79000 M⁻¹ s⁻¹.

Turning to `Cc1ccc(C(=O)ONC(=O)[C@H](Cc2ccccc2)NC(=O)CN)cc1` [compound 12, TFA*H-Gly-L-Phe-NHO-Bz-p-CH3], the figures for the IC50 on cathepsin L, on cathepsin H and on cathepsin B were 33.1 µM, 154 µM and 34 µM, respectively. Besides, the “IC50 DP IV” value in series [1] is listed as “n.i”. For the same molecule, the kinact/KI on DP I [2] was determined as 19000 M⁻¹ s⁻¹.

With `CC(=O)ONC(=O)[C@H](Cc1ccccc1)NC(=O)CN` [compound 10, TFA*H-Gly-L-Phe-NHO-Ac], the IC50 is 156 µM at cathepsin L and 117 µM at cathepsin B. Moreover, in [3], the “LD50 Hep-G2” value is 1.6 mg/mL. For the same molecule, the “LD50 L-929” value in series [4] worked out at 4.3 mg/mL. In addition, the “IC50 DP IV” value in series [1] was “n.i”. The second-order inactivation constant (kinact/KI) at DP I [2] turned out to be 39000 M⁻¹ s⁻¹. In addition, the “IC50 Cath. H” value against cathepsin H is on record as “n.i”.

For the molecule `Cc1ccc(C(=O)ONC(=O)[C@H](Cc2ccccc2)NC(=O)CN)cc1` (as salt: TFA) [compound 12, TFA*H-Gly-L-Phe-NHO-Bz-p-CH3], the melting point is 98 to 101 °C.

For the molecule `CC(=O)N[C@@H](CC(C)C)C(=O)N[C@@H](CC(C)C)C(=O)N[C@H](C=O)CCCNC(=N)N` [leupeptin, reference compound], the “inhibition of DP I (in words)” value on DP I [5] is recorded as “weak inhibition”.

Molecule `CNCC(=O)N[C@@H](Cc1ccccc1)C(=O)NOC(=O)c1ccccc1` (as salt: TFA) [compound 14, TFA*H-Sar-L-Phe-NHO-Bz] showed a melting point of 69 to 71 °C.

With `NCC(=O)N[C@@H](Cc1ccccc1)C(=O)NOC(=O)c1ccccc1` [compound 11, TFA*H-Gly-L-Phe-NHO-Bz], the IC50 came to 36.9 µM on cathepsin L and 37.7 µM at cathepsin B. In addition, the “LD50 Hep-G2” value in series [3] was determined as 0.8 mg/mL. In addition, in [4], the “LD50 L-929” value came to 1.0 mg/mL. Moreover, the “IC50 DP IV” value in series [1] is reported as “n.i”. The kinact/KI at DP I [2] came out at 400000 M⁻¹ s⁻¹. In addition, on cathepsin H, the “IC50 Cath. H” value is listed as “n.i”.

As to `CC(C)C[C@H](NC(=O)[C@H]1O[C@@H]1C(=O)O)C(=O)NCCCCN=C(N)N` [E-64, reference compound], the “inhibition of DP I (in words)” value at DP I [5] is “weak inhibition”.

B1: stefin A (protein, UniProt P01040 1-98, looked up)
Cystatin-A: MIPGGLSEAKPATPEIQEIVDKVKPQLEEKTNETYGKLEAVQYKTQVVAGTNYYIKVRAGDNKYMHLKVFKSLPGQNEDLVLTGYQVDKNKDDELTGF
B1: the “inhibition of DP I (in words)” value with DP I [5] is given as “Stronger reversible inhibitors”.

B2: chicken cystatin (protein, UniProt P01038 24-139, looked up)
Cystatin: SEDRSRLLGAPVPVDENDEGLQRALQFAMAEYNRASNDKYSSRVVRVISAKRQLVSGIKYILQVEIGRTTCPKSSGDLQSCEFHDEPEMAKYTTCTFVVYSIPWLNQIKLLESKCQ
As for B2, in the series with DP I [5], the “inhibition of DP I (in words)” value is “Stronger reversible inhibitors”.
